Data taken from ChEMBL document CHEMBL5108031, “Novel N-(4-thiocyanatophenyl)-1H-1,2,3-triazole-4-carboxamides exhibit selective cytotoxic activity at nanomolar doses towards human leukemic T-cells” (Eur J Med Chem, 2022).
The source made the active and inactive calls. No cut-off for these calls is given here.

Key:
SK-OV-3 = test: Antiproliferative activity against human SK-OV-3 cells incubated for 72 hrs and measured by MTT assay; assay type: functional
KB 3-1 = test: Antiproliferative activity against human KB 3-1 cells incubated for 72 hrs and measured by MTT assay; assay type: functional
BALB/3T3 = test: Antiproliferative activity against mouse BALB/3T3 cells incubated for 72 hrs and measured by MTT assay; assay type: functional
HeLa = test: Antiproliferative activity against human HeLa cells incubated for 72 hrs and measured by MTT assay; assay type: functional
Jurkat [1] = test: Antiproliferative activity against human Jurkat cells incubated for 72 hrs and measured by MTT assay; assay type: functional
HCT-116 [2] = test: Antiproliferative activity against human HCT-116 cells incubated for 72 hrs and measured by MTT assay; assay type: functional
K562 = test: Antiproliferative activity against human K562 cells incubated for 72 hrs and measured by MTT assay; assay type: functional
A549 = test: Antiproliferative activity against human A549 cells incubated for 72 hrs and measured by MTT assay; assay type: functional
HCT-116 [3] = test: Antiproliferative activity against p53-deficient human HCT-116 cells incubated for 72 hrs and measured by MTT assay; assay type: functional
HEK293 = test: Antiproliferative activity against human HEK293 cells incubated for 72 hrs and measured by MTT assay; assay type: functional
MCF7 = test: Antiproliferative activity against human MCF7 cells incubated for 72 hrs and measured by MTT assay; assay type: functional
WM793 = test: Antiproliferative activity against human WM793 cells incubated for 72 hrs and measured by MTT assay; assay type: functional
MDA-MB-231 = test: Antiproliferative activity against human MDA-MB-231 cells incubated for 72 hrs and measured by MTT assay; assay type: functional
THP-1 = test: Antiproliferative activity against human THP-1 cells incubated for 72 hrs and measured by MTT assay; assay type: functional
HaCaT = test: Antiproliferative activity against human HaCaT cells incubated for 72 hrs and measured by MTT assay; assay type: functional
Jurkat [4] = test: Induction of apoptosis in human Jurkat cells assessed as cell debris at 0.5 uM measured after 24 hrs by Hoechst 33342/propidium iodide staining based fluorescence microscopic analysis; assay type: functional
Jurkat [5] = test: Induction of apoptosis in human Jurkat cells assessed as fragmented DNA and nuclei at 0.5 uM measured after 24 hrs by Hoechst 33342/propidium iodide staining based fluorescence microscopic analysis; assay type: functional, cell-based
Jurkat [6] = test: Induction of apoptosis in human Jurkat cells assessed as appearance of apoptotic bodies at 0.5 uM measured after 24 hrs by Hoechst 33342/propidium iodide staining based fluorescence microscopic analysis; assay type: functional, cell-based
Jurkat [7] = test: Induction of apoptosis in human Jurkat cells assessed as decrease in mitochondrial membrane potential at 0.5 uM measured after 24 hrs by Rhodamine 123 fluorescence based assay; assay type: functional, cell-based
DNA [8] = test: Binding affinity to DNA (unknown origin) assessed as DNA intercalation at 1 uM by measuring amount of methyl green dye replaced from DNA-methyl green complex; assay type: nucleic-acid assay; details: Homo sapiens
Jurkat [9] = test: Induction of apoptosis in human Jurkat cells assessed as condensed chromatin at 0.5 uM measured after 24 hrs by Hoechst 33342/propidium iodide staining based fluorescence microscopic analysis; assay type: functional, cell-based
Jurkat [10] = test: Induction of DNA damage in human Jurkat cells assessed as olive tail moment at 0.5 uM measured after 24 hrs by comet assay; assay type: functional
Homo sapiens = species: Homo sapiens; test: Inhibition of electrophoretic mobility of Plasmid DNA pEGFPc-1 (unknown origin) incubated for 6 hrs at 1 uM and measured by agarose gel electrophoresis method
Jurkat [11] = test: Induction of DNA damage in human Jurkat cells assessed as DNA fragmentation at 0.5 uM measured by Diphenylamine assay; assay type: functional
Jurkat [12] = test: Induction of apoptosis in human Jurkat cells assessed as cellular membrane blebbing at 0.5 uM measured after 24 hrs by Hoechst 33342/propidium iodide staining based fluorescence microscopic analysis; assay type: functional, cell-based
Jurkat [13] = test: Induction of DNA damage in human Jurkat cells assessed as tail DNA at 0.5 uM measured after 24 hrs by comet assay; assay type: functional
DNA [14] = test: Binding affinity to DNA (unknown origin) assessed as DNA intercalation at 10 uM by measuring amount of methyl green dye replaced from DNA-methyl green complex; assay type: nucleic-acid assay; details: Homo sapiens
[15] = molecular target: Heat shock protein HSP 90-alpha (Homo sapiens, UniProt P07900); test: Inhibition of Hsp90alpha (unknown origin)
[16] = molecular target: DNA topoisomerase 2-alpha (Homo sapiens, UniProt P11388); test: Inhibition of DNA topoisomerase 2 alpha (unknown origin) measured by topoisomerase-mediated DNA relaxation assay
HOP-92 = test: Antiproliferative activity against human HOP-92 cells; assay type: functional
SNB-75 = test: Antiproliferative activity against human SNB-75 cells; assay type: functional
DNA [17] = test: Binding affinity to DNA (unknown origin) assessed as DNA intercalation at 10 ug/ml by measuring amount of methyl green dye replaced from DNA-methyl green complex; assay type: nucleic-acid assay; details: Homo sapiens; dose 10.0 µg/ml
DNA [18] = test: Binding affinity to DNA (unknown origin) assessed as DNA intercalation at 1 ug/ml by measuring amount of methyl green dye replaced from DNA-methyl green complex; assay type: nucleic-acid assay; details: Homo sapiens; dose 1.0 µg/ml

Chain of DNA topoisomerase 2-alpha (P11388 whole entry): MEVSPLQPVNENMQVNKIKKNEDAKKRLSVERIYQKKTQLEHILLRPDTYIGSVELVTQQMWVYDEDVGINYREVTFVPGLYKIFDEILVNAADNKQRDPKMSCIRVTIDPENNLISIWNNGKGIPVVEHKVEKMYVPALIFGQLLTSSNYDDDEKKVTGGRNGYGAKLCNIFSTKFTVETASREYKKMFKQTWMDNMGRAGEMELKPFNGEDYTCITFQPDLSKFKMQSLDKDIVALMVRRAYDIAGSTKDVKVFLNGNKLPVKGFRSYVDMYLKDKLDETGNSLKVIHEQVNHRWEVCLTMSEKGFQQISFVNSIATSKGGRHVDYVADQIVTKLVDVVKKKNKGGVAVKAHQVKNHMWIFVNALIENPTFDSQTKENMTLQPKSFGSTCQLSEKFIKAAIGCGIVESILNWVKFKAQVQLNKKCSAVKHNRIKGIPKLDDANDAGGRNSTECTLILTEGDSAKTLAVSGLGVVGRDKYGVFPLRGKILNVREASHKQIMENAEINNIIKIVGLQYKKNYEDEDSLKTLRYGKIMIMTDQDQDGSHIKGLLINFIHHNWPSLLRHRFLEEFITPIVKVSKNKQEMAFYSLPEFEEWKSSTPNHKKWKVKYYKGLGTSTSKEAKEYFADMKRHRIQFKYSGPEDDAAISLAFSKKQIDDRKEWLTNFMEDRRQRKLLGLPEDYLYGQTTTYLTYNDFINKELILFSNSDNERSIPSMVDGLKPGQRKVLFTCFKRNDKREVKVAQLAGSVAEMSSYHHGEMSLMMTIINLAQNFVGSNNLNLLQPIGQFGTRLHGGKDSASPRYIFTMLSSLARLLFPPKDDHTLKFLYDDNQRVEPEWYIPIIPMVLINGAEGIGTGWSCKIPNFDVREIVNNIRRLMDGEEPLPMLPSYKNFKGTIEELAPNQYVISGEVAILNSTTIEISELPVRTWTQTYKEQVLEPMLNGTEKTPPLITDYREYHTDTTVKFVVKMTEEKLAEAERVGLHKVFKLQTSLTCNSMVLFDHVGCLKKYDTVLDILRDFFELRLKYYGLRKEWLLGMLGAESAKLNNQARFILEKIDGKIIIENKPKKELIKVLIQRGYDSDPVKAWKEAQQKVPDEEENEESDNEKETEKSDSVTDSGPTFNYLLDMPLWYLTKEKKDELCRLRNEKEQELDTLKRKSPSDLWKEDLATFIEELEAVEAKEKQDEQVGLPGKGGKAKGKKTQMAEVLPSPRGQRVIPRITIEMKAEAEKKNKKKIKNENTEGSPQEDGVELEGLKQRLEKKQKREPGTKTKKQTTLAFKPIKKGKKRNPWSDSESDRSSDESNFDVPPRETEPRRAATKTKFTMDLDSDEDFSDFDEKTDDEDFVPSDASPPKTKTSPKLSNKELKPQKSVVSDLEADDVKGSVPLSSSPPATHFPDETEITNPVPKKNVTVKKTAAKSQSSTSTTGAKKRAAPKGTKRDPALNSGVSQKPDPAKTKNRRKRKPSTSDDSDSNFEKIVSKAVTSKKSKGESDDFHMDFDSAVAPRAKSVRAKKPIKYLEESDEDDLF

Row | SMILES | GI50 (SK-OV-3) [µM] | GI50 (KB 3-1) [µM] | GI50 (BALB/3T3) [µM] | GI50 (HeLa) [µM] | GI50 (Jurkat [1]) [µM] | GI50 (HCT-116 [2]) [µM] | GI50 (K562) [µM] | GI50 (A549) [µM] | GI50 (HCT-116 [3]) [µM] | GI50 (HEK293) [µM] | GI50 (MCF7) [µM] | GI50 (WM793) [µM] | GI50 (MDA-MB-231) [µM] | GI50 (THP-1) [µM] | GI50 (HaCaT) [µM] | other results
1 | COc1cccc(-n2nnc(C(=O)Nc3ccc(SC#N)cc3)c2C)c1 | 64.6 | > 100 | > 100 | > 100 | > 100 | > 100 | 84.5 | > 100 | 39.8 | > 100 | > 100 | > 100 | > 100 | > 100 | > 100 | –
2 | COCc1c(C(=O)Nc2ccc(SC#N)cc2)nnn1-c1ccc(C)cc1 | 46.4 | 53.6 | 75.7 | > 100 | 4.46 | 81.2 | 42.5 | > 100 | 21.7 | > 100 | > 100 | 93.3 | > 100 | > 100 | > 100 | –
3 | Cc1ccc(Cl)cc1-n1nnc(C(=O)Nc2ccc(SC#N)cc2)c1C | 81.5 | 7.8 | 9.9 | 91.3 | 0.68 | 39.6 | 5.7 | > 100 | 8.2 | 91.2 | 8.4 | 72.8 | 44.6 | > 100 | > 100 | –
4 | COc1cccc2c1C(=O)c1c(O)c3c(c(O)c1C2=O)C[C@@](O)(C(=O)CO)C[C@@H]3O[C@H]1C[C@H](N)[C@H](O)[C@H](C)O1 [DOXORUBICIN] | 8.8 | 0.74 | 0.62 | 0.76 | 0.65 | 0.76 | 0.7 | 1.1 | 0.5 | 0.8 | 0.82 | 0.9 | 0.76 | 23.1 | 0.9 | Activity (Jurkat [4]): Active; Activity (Jurkat [5]): Active; Activity (Jurkat [6]): Active; Activity (Jurkat [7]): Active; Activity (DNA [8]): 49.1%; Activity (Jurkat [9]): Active; Activity (Jurkat [10]): 5.4; inhibition (Homo sapiens): Active; Activity (Jurkat [11]): 64%; Activity (Jurkat [12]): Active; Activity (Jurkat [13]): 20.3%; Activity (DNA [14]): 54.2%
5 | CCNC(=O)c1nnn(-c2cc(C(C)C)c(O)cc2O)c1-c1ccc(CN2CCOCC2)cc1 | – | – | – | – | – | – | – | – | – | – | – | – | – | – | – | IC50 [15]: < 0.005 µM
6 | COc1cc([C@@H]2c3cc4c(cc3[C@@H](NC(=O)c3cn(-c5ccc(Cl)cc5)nn3)[C@H]3COC(=O)[C@H]23)OCO4)cc(OC)c1OC | – | – | – | – | – | – | – | – | – | – | – | – | – | – | – | IC50 [16]: < 1 µM
7 | Cc1ccc(-n2nnc(C(=O)Nc3cc(Cl)ccc3Cl)c2N)cc1 | – | – | – | – | – | – | – | – | – | – | – | – | – | – | – | GI50 (HOP-92): 0.58 µM; TGI (HOP-92): 5.9 µM; GI50 (SNB-75): 0.58 µM; TGI (SNB-75): 5.9 µM
8 | CCCc1c(C(=O)Nc2ccc(SC#N)cc2)nnn1-c1ccccc1 | 73.7 | 7.8 | 96.9 | 48.8 | 0.63 | 42.3 | 1.4 | > 100 | 39.6 | > 100 | 52 | 65.7 | > 100 | > 100 | > 100 | –
9 | Cc1ccc(-n2nnc(C(=O)Nc3ccc(SC#N)cc3)c2C)cc1C | > 100 | 61 | 9.8 | > 100 | 0.68 | > 100 | 9.2 | > 100 | > 100 | > 100 | 72 | 72.4 | > 100 | > 100 | > 100 | –
10 | CC[n+]1c(-c2ccccc2)c2cc(N)ccc2c2ccc(N)cc21 | – | – | – | – | – | – | – | – | – | – | – | – | – | – | – | Activity (DNA [17]): 46.6%; Activity (DNA [18]): 24.7%
11 | Cc1ccc(Cl)c(-n2nnc(C(=O)Nc3ccc(SC#N)cc3)c2C)c1 | 9.6 | 68 | 100 | > 100 | 66.3 | > 100 | 6.6 | > 100 | > 100 | > 100 | > 100 | > 100 | > 100 | > 100 | > 100 | –
